From PubChem BioAssay AID2060509 (Molecular Pharmacology Branch, DTP, NCI, 2025)

System: 485176-168-R4-J1-PDC spheroids with HUVEC/MSC, viability
Assay: Anticancer human tumor 485176-168-R4-J1-PDC patient-derived pancreatic adenocarcinoma cell line growth inhibition [GQUAD]
Conditions: for IC50: curve of first compound; for viability, T/C: stronger effect = lower value; active means viability on the fitted dose curve at most 10% of control; inactive means the rest
Method in brief: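 Viability of tumor cells grown as complex spheroids with endothelial and stromal cells, exposed to drug combinations. Top concentration at or near clinical Cmax (else 10 microM), diluted in half-log increments.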

[1] = second compound 0.0316 µM, first compound 0.0316 µM
[2] = second compound 0.0316 µM, first compound 0.316 µM
[3] = second compound 0.1 µM, first compound 0.0316 µM
[4] = second compound 0.1 µM, first compound 0.316 µM
[5] = second compound 0.316 µM, first compound 0.0316 µM
[6] = second compound 0.316 µM, first compound 0.316 µM
[7] = second compound 1 µM, first compound 0.0316 µM
[8] = second compound 1 µM, first compound 0.316 µM
[9] = second compound 3.16 µM, first compound 0.0316 µM
[10] = second compound 3.16 µM, first compound 0.316 µM
[11] = second compound 10 µM, first compound 0.0316 µM
[12] = second compound 10 µM, first compound 0.316 µM
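Further: spheroids exposed to compounds for seven days before readout.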
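Wherever viability, T/C is given: percent viability relative to DMSO vehicle control wells as 100%.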

CC(C)n1c(=O)n(C)c2cnc3cc(F)c(-c4ccc(OCCCN5CCCCC5)nc4)cc3c21 + Cc1[nH]c2ccc(F)cc2c1-c1nc2c3cccnc3c3ncccc3c2[nH]1
inactive: viability, T/C [1] 106% | viability, T/C (second compound 0.0316 µM, first compound 0.1 µM) 78.3% | viability, T/C [2] 89.2% | viability, T/C (second compound 0.0316 µM, first compound 1 µM) 87.8% | viability, T/C (second compound 0.0316 µM, first compound 3.16 µM) 85.1% | viability, T/C (second compound 0.0316 µM, first compound 10 µM) 71.2% | viability, T/C [3] 82.6% | viability, T/C (second compound 0.1 µM, first compound 0.1 µM) 103% | viability, T/C [4] 77.7% | viability, T/C (second compound 0.1 µM, first compound 1 µM) 95.6% | viability, T/C (second compound 0.1 µM, first compound 3.16 µM) 93.8% | viability, T/C (second compound 0.1 µM, first compound 10 µM) 99.2% | viability, T/C [5] 92% | viability, T/C (second compound 0.316 µM, first compound 0.1 µM) 82.8% | viability, T/C [6] 91.1% | viability, T/C (second compound 0.316 µM, first compound 1 µM) 88.7% | viability, T/C (second compound 0.316 µM, first compound 3.16 µM) 80.4% | viability, T/C (second compound 0.316 µM, first compound 10 µM) 85.2% | viability, T/C [7] 80.8% | viability, T/C (second compound 1 µM, first compound 0.1 µM) 89.6% | viability, T/C [8] 81.7% | viability, T/C (second compound 1 µM, first compound 1 µM) 84.3% | viability, T/C (second compound 1 µM, first compound 3.16 µM) 99.3% | viability, T/C (second compound 1 µM, first compound 10 µM) 77.2% | viability, T/C [9] 89.2% | viability, T/C (second compound 3.16 µM, first compound 0.1 µM) 82.4% | viability, T/C [10] 84.4% | viability, T/C (second compound 3.16 µM, first compound 1 µM) 85% | viability, T/C (second compound 3.16 µM, first compound 3.16 µM) 76.8% | viability, T/C (second compound 3.16 µM, first compound 10 µM) 64% | viability, T/C [11] 79.1% | viability, T/C (second compound 10 µM, first compound 0.1 µM) 78.8% | viability, T/C [12] 87.4% | viability, T/C (second compound 10 µM, first compound 1 µM) 76.5% | viability, T/C (second compound 10 µM, first compound 3.16 µM) 86% | viability, T/C (second compound 10 µM, first compound 10 µM) 64.6%
> 10000 nM: IC50 (second compound 0.0316 µM) | IC50 (second compound 0.1 µM) | IC50 (second compound 0.316 µM) | IC50 (second compound 1 µM) | IC50 (second compound 3.16 µM) | IC50 (second compound 10 µM)

Cc1[nH]c2ccccc2c1CCNCc1ccc(/C=C/C(=O)NO)cc1 + CN(C)c1ccc(Nc2c3ccc(NC(=O)CCN4CCCC4)cc3nc3cc(NC(=O)CCN4CCCC4)ccc23)cc1
120 nM: IC50 (second compound 10 µM)
active: viability, T/C [12] 5.87%
116 nM: IC50 (second compound 0.0316 µM)
132 nM: IC50 (second compound 0.1 µM)
136 nM: IC50 (second compound 1 µM)
inactive: viability, T/C (second compound 0.0316 µM, first compound 0.000999 µM) 102% | viability, T/C (second compound 0.0316 µM, first compound 0.00316 µM) 89.9% | viability, T/C (second compound 0.0316 µM, first compound 0.00999 µM) 82.7% | viability, T/C [1] 69.4% | viability, T/C (second compound 0.0316 µM, first compound 0.0999 µM) 64.6% | viability, T/C [2] 12.9% | viability, T/C (second compound 0.1 µM, first compound 0.000999 µM) 103% | viability, T/C (second compound 0.1 µM, first compound 0.00316 µM) 87.5% | viability, T/C (second compound 0.1 µM, first compound 0.00999 µM) 89.2% | viability, T/C [3] 86.1% | viability, T/C (second compound 0.1 µM, first compound 0.0999 µM) 61.9% | viability, T/C [4] 12.1% | viability, T/C (second compound 0.316 µM, first compound 0.000999 µM) 80.1% | viability, T/C (second compound 0.316 µM, first compound 0.00316 µM) 96.7% | viability, T/C (second compound 0.316 µM, first compound 0.00999 µM) 82.9% | viability, T/C [5] 82% | viability, T/C (second compound 0.316 µM, first compound 0.0999 µM) 59.4% | viability, T/C [6] 11.8% | viability, T/C (second compound 1 µM, first compound 0.000999 µM) 97.3% | viability, T/C (second compound 1 µM, first compound 0.00316 µM) 96.7% | viability, T/C (second compound 1 µM, first compound 0.00999 µM) 83% | viability, T/C [7] 64.2% | viability, T/C (second compound 1 µM, first compound 0.0999 µM) 76.5% | viability, T/C [8] 10% | viability, T/C (second compound 3.16 µM, first compound 0.000999 µM) 113% | viability, T/C (second compound 3.16 µM, first compound 0.00316 µM) 97.9% | viability, T/C (second compound 3.16 µM, first compound 0.00999 µM) 86% | viability, T/C [9] 74.5% | viability, T/C (second compound 3.16 µM, first compound 0.0999 µM) 47.9% | viability, T/C [10] 14.5% | viability, T/C (second compound 10 µM, first compound 0.000999 µM) 104% | viability, T/C (second compound 10 µM, first compound 0.00316 µM) 83.5% | viability, T/C (second compound 10 µM, first compound 0.00999 µM) 69.3% | viability, T/C [11] 90.7% | viability, T/C (second compound 10 µM, first compound 0.0999 µM) 58.3%
88.3 nM: IC50 (second compound 3.16 µM)
126 nM: IC50 (second compound 0.316 µM)
